This passage reports IC50 results from US9474790B2, “Stable, protracted GLP-1/glucagon receptor co-agonists for medical use” (Novo Nordisk A/S, priority 2013, dated 2016).

Numbered stars: 1 amine (or outer) side, 2 acyl side, 3 side chain; on linkers, the order of the positions; unused ones are H or OH. Square brackets hold non-standard residues; d marks the D form. Side chains are listed from the residue outwards. Peptide text beside a SMILES is read from it. * marks the point of attachment. C18 diacid = O=C(O)CCCCCCCCCCCCCCCCC(=O)*; γGlu = O=C(O)[C@H](CCC(=O)[*:2])N[*:1]; Ac4c = NC1(C(=O)O)CCC1; AEEA = NCCOCCOCC(=O)O; Aib = CC(C)(N)C(=O)O

The target of the assay is T1, human GLP-1 receptor (Homo sapiens, UniProt P43220).
T1 construct: expressed in transfected cells; host or cells: BHK cells (parent BHKTS13), clone FCW467-12A/KZ10-1, with CRE luciferase
Nature of the assay: GLP-1 receptor binding, 125I-GLP-1 displacement SPA on isolated membranes. The note with it: displacement of 125I-GLP-1 from membranes; read-out: IC50 GLP-1R. The procedure, abridged: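 Test derivatives, serially diluted, competed with 125I-GLP-1(7-36)NH2 for the human GLP-1 receptor on BHK membranes, read by WGA-bead scintillation proximity after 2 h at 30°C, pH 7.4 HEPES/EGTA/MgCl2 buffer. Final serum albumin was either ≤0.001% or 2.0%; IC50 from non-linear fit.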
Background: In a radioligand displacement assay an active substance lowers the binding of a labelled ligand.

T1 sequence (P43220 24-463): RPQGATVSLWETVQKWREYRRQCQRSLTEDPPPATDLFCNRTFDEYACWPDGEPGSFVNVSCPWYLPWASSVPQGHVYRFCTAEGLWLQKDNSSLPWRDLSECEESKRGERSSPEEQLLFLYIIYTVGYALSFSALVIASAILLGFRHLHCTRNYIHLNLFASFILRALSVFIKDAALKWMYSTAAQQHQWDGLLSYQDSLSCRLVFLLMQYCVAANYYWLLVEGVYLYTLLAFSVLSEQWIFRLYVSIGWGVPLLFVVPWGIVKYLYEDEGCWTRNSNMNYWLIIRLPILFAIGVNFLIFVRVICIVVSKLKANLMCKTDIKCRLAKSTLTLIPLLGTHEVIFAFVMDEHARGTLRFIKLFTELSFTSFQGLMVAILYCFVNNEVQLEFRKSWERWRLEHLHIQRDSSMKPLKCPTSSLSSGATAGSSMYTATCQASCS

On to `CC(C)C[C@H](NC(=O)[C@H](Cc1ccc(O)cc1)NC(=O)[C@H](CCCCN)NC(=O)[C@H](CO)NC(=O)[C@H](CC(C)C)NC(=O)[C@H](CC(=O)O)NC(=O)[C@H](CO)NC(=O)[C@@H](NC(=O)[C@H](Cc1ccccc1)NC(=O)[C@@H](NC(=O)CNC(=O)[C@H](CCC(N)=O)NC(=O)C(C)(C)NC(=O)[C@@H](N)Cc1c[nH]cn1)[C@@H](C)O)[C@@H](C)O)C(=O)N[C@@H](CC(=O)O)C(=O)N[C@@H](CO)C(=O)N[C@@H](CCCNC(=N)N)C(=O)N[C@@H](CCCNC(=N)N)C(=O)N[C@@H](C)C(=O)N[C@@H](CCCNC(=N)N)C(=O)N[C@@H](CCC(=O)O)C(=O)N[C@@H](Cc1ccccc1)C(=O)N[C@H](C(=O)N[C@@H](CCC(N)=O)C(=O)N[C@@H](Cc1c[nH]c2ccccc12)C(=O)N[C@@H](CC(C)C)C(=O)N[C@@H](CC(C)C)C(=O)N[C@@H](CCCCNC(=O)CC[C@H](NC(=O)CC[C@H](NC(=O)COCCOCCNC(=O)COCCOCCNC(=O)CC[C@H](NC(=O)CCCCCCCCCCCCCCCCC(=O)O)C(=O)O)C(=O)O)C(=O)O)C(=O)N[C@H](C(N)=O)[C@@H](C)O)C(C)C` [Example 56, N^ε28-[(4S)-4-carboxy-4-[[(4S)-4-carboxy-4-[[2-[2-[2-[[2-[2-[2-[[(4S)-4-carboxy-4-(17-carboxyheptadecanoylamino)butanoyl]amino]ethoxy]ethoxy]acetyl]amino]ethoxy]ethoxy]acetyl]amino]butanoyl]amino]butanoyl]-[Aib2,Leu10,Arg20,Glu21,Leu27,Lys28]-Glucagon amide] (H-H[Aib]QGTFTSDLSKYLDSRRAREFVQWLLK([γGlu-γGlu-AEEA-AEEA-γGlu-C18 diacid])T-NH2), for which the IC50 was determined as 300 pM.
On to `CC(C)C[C@H](NC(=O)[C@H](Cc1ccc(O)cc1)NC(=O)[C@H](CCCNC(=N)N)NC(=O)[C@H](CO)NC(=O)[C@H](CC(C)C)NC(=O)[C@H](CC(=O)O)NC(=O)[C@H](CO)NC(=O)[C@@H](NC(=O)[C@H](Cc1ccccc1)NC(=O)[C@@H](NC(=O)CNC(=O)[C@H](CCC(N)=O)NC(=O)C1(NC(=O)[C@@H](N)Cc2c[nH]cn2)CCC1)[C@@H](C)O)[C@@H](C)O)C(=O)N[C@@H](CCC(=O)O)C(=O)N[C@@H](CO)C(=O)N[C@@H](CCCNC(=N)N)C(=O)N[C@@H](CCCNC(=N)N)C(=O)N[C@@H](C)C(=O)N[C@@H](CCCNC(=N)N)C(=O)N[C@@H](CCC(=O)O)C(=O)N[C@@H](Cc1ccccc1)C(=O)N[C@H](C(=O)N[C@@H](CCC(N)=O)C(=O)N[C@@H](Cc1c[nH]c2ccccc12)C(=O)N[C@@H](CC(C)C)C(=O)N[C@@H](CC(C)C)C(=O)N[C@@H](CCCCNC(=O)CC[C@H](NC(=O)CC[C@H](NC(=O)COCCOCCNC(=O)COCCOCCNC(=O)CC[C@H](NC(=O)CC[C@H](NC(=O)CCCCCCCCCCCCCCCCC(=O)O)C(=O)O)C(=O)O)C(=O)O)C(=O)O)C(=O)N[C@H](C(N)=O)[C@@H](C)O)C(C)C` [Example 59, N^ε28-[(4S)-4-carboxy-4-[[(4S)-4-carboxy-4-[[2-[2-[2-[[2-[2-[2-[[(4S)-4-carboxy-4-[[(4S)-4-carboxy-4-(17-carboxyheptadecanoylamino)butanoyl]amino]butanoyl]amino]ethoxy]ethoxy]acetyl]amino]ethoxy]ethoxy]acetyl]amino]butanoyl]amino]butanoyl]-[Acb2,Leu10,Arg12,Glu15,Arg20,Glu21,Leu27,Lys28]-Glucagon amide] (H-H[Ac4c]QGTFTSDLSRYLESRRAREFVQWLLK([γGlu-γGlu-AEEA-AEEA-γGlu-γGlu-C18 diacid])T-NH2; N-terminus assumed), for which the IC50 is 200 pM.
To `CC(C)C[C@H](NC(=O)[C@H](Cc1ccc(O)cc1)NC(=O)[C@H](CCCCN)NC(=O)[C@H](CO)NC(=O)[C@H](CC(C)C)NC(=O)[C@H](CC(=O)O)NC(=O)[C@H](CO)NC(=O)[C@@H](NC(=O)[C@H](Cc1ccccc1)NC(=O)[C@@H](NC(=O)CNC(=O)[C@H](CCC(N)=O)NC(=O)C(C)(C)NC(=O)[C@@H](N)Cc1c[nH]cn1)[C@@H](C)O)[C@@H](C)O)C(=O)N[C@@H](CCC(=O)O)C(=O)N[C@@H](CO)C(=O)N[C@@H](CCCNC(=N)N)C(=O)N[C@@H](CCCNC(=N)N)C(=O)N[C@@H](C)C(=O)N[C@@H](CCCNC(=N)N)C(=O)N[C@@H](CCC(=O)O)C(=O)N[C@@H](Cc1ccccc1)C(=O)N[C@H](C(=O)N[C@@H](CCC(N)=O)C(=O)N[C@@H](Cc1c[nH]c2ccccc12)C(=O)N[C@@H](CC(C)C)C(=O)N[C@@H](CC(C)C)C(=O)N[C@@H](CCCCNC(=O)CC[C@H](NC(=O)CC[C@H](NC(=O)COCCOCCNC(=O)COCCOCCNC(=O)CC[C@H](NC(=O)CC[C@H](NC(=O)CCCCCCCCCCCCCCCCC(=O)O)C(=O)O)C(=O)O)C(=O)O)C(=O)O)C(=O)N[C@H](C(N)=O)[C@@H](C)O)C(C)C` [Example 60, N^ε28-[(4S)-4-carboxy-4-[[(4S)-4-carboxy-4-[[2-[2-[2-[[2-[2-[2-[[(4S)-4-carboxy-4-[[(4S)-4-carboxy-4-(17-carboxyheptadecanoylamino)butanoyl]amino]butanoyl]amino]ethoxy]ethoxy]acetyl]amino]ethoxy]ethoxy]acetyl]amino]butanoyl]amino]butanoyl]-[Aib2,Leu10,Glu15,Arg20,Glu21,Leu27,Lys28]-Glucagon amide] (H-H[Aib]QGTFTSDLSKYLESRRAREFVQWLLK([γGlu-γGlu-AEEA-AEEA-γGlu-γGlu-C18 diacid])T-NH2; N-terminus assumed) belongs 200 pM; to `CC(C)C[C@H](NC(=O)[C@H](Cc1ccc(O)cc1)NC(=O)[C@H](CCCCN)NC(=O)[C@H](CO)NC(=O)[C@H](CC(C)C)NC(=O)[C@H](CC(=O)O)NC(=O)[C@H](CO)NC(=O)[C@@H](NC(=O)[C@H](Cc1ccccc1)NC(=O)[C@@H](NC(=O)CNC(=O)[C@H](CCC(N)=O)NC(=O)C1(NC(=O)[C@@H](N)Cc2c[nH]cn2)CCC1)[C@@H](C)O)[C@@H](C)O)C(=O)N[C@@H](CCC(=O)O)C(=O)N[C@@H](CO)C(=O)N[C@@H](CCCNC(=N)N)C(=O)N[C@@H](CCCNC(=N)N)C(=O)N[C@@H](C)C(=O)N[C@@H](CCCNC(=N)N)C(=O)N[C@@H](CCC(=O)O)C(=O)N[C@@H](Cc1ccccc1)C(=O)N[C@H](C(=O)N[C@@H](CCC(N)=O)C(=O)N[C@@H](Cc1c[nH]c2ccccc12)C(=O)N[C@@H](CC(C)C)C(=O)N[C@@H](CC(C)C)C(=O)N[C@@H](CCCCNC(=O)CC[C@H](NC(=O)CC[C@H](NC(=O)COCCOCCNC(=O)COCCOCCNC(=O)CC[C@H](NC(=O)CC[C@H](NC(=O)CCCCCCCCCCCCCCCCC(=O)O)C(=O)O)C(=O)O)C(=O)O)C(=O)O)C(=O)N[C@H](C(N)=O)[C@@H](C)O)C(C)C` [Example 61, N^ε28-[(4S)-4-carboxy-4-[[(4S)-4-carboxy-4-[[2-[2-[2-[[2-[2-[2-[[(4S)-4-carboxy-4-[[(4S)-4-carboxy-4-(17-carboxyheptadecanoylamino)butanoyl]amino]butanoyl]amino]ethoxy]ethoxy]acetyl]amino]ethoxy]ethoxy]acetyl]amino]butanoyl]amino]butanoyl]-[Acb2,Leu10,Glu15,Arg20,Glu21,Leu27,Lys28]-Glucagon amide] (H-H[Ac4c]QGTFTSDLSKYLESRRAREFVQWLLK([γGlu-γGlu-AEEA-AEEA-γGlu-γGlu-C18 diacid])T-NH2; N-terminus assumed), 300 pM; to `CC(C)C[C@H](NC(=O)[C@H](Cc1ccc(O)cc1)NC(=O)[C@H](CCCNC(=N)N)NC(=O)[C@H](CO)NC(=O)[C@H](CC(C)C)NC(=O)[C@H](CC(=O)O)NC(=O)[C@H](CO)NC(=O)[C@@H](NC(=O)[C@H](Cc1ccccc1)NC(=O)[C@@H](NC(=O)CNC(=O)[C@H](CCC(N)=O)NC(=O)C(C)(C)NC(=O)[C@@H](N)Cc1c[nH]cn1)[C@@H](C)O)[C@@H](C)O)C(=O)N[C@@H](CC(=O)O)C(=O)N[C@@H](C)C(=O)N[C@@H](CCCNC(=N)N)C(=O)N[C@@H](CCCNC(=N)N)C(=O)N[C@@H](C)C(=O)N[C@@H](CCCNC(=N)N)C(=O)N[C@@H](CC(=O)O)C(=O)N[C@@H](Cc1ccccc1)C(=O)N[C@H](C(=O)N[C@@H](CCC(N)=O)C(=O)N[C@@H](Cc1c[nH]c2ccccc12)C(=O)N[C@@H](CC(C)C)C(=O)N[C@@H](CC(C)C)C(=O)N[C@@H](CCCCNC(=O)CC[C@H](NC(=O)CC[C@H](NC(=O)CC[C@H](NC(=O)CCCCCCCCCCCCCCCCC(=O)O)C(=O)O)C(=O)O)C(=O)O)C(=O)N[C@H](C(N)=O)[C@@H](C)O)C(C)C` [Example 62, N^ε28-[(4S)-4-carboxy-4-[[(4S)-4-carboxy-4-[[(4S)-4-carboxy-4-(17-carboxyheptadecanoylamino)butanoyl]amino]butanoyl]amino]butanoyl]-[Aib2,Leu10,Arg12,Ala16,Arg20,Leu27,Lys28]-Glucagon amide] (H-H[Aib]QGTFTSDLSRYLDARRARDFVQWLLK([γGlu-γGlu-γGlu-C18 diacid])T-NH2; N-terminus assumed), 200 pM.
To `CC(C)C[C@H](NC(=O)[C@H](Cc1ccc(O)cc1)NC(=O)[C@H](CCCCN)NC(=O)[C@H](CO)NC(=O)[C@H](CC(C)C)NC(=O)[C@H](CC(=O)O)NC(=O)[C@H](CO)NC(=O)[C@@H](NC(=O)[C@H](Cc1ccccc1)NC(=O)[C@@H](NC(=O)CNC(=O)[C@H](CCC(N)=O)NC(=O)C(C)(C)NC(=O)[C@@H](N)Cc1c[nH]cn1)[C@@H](C)O)[C@@H](C)O)C(=O)N[C@@H](CC(=O)O)C(=O)N[C@@H](C)C(=O)N[C@@H](CCCNC(=N)N)C(=O)N[C@@H](CCCNC(=N)N)C(=O)N[C@@H](C)C(=O)N[C@@H](CCCNC(=N)N)C(=O)N[C@@H](CC(=O)O)C(=O)N[C@@H](Cc1ccccc1)C(=O)N[C@H](C(=O)N[C@@H](CCC(N)=O)C(=O)N[C@@H](Cc1c[nH]c2ccccc12)C(=O)N[C@@H](CC(C)C)C(=O)N[C@@H](CC(C)C)C(=O)N[C@@H](CC(N)=O)C(=O)N[C@@H](CCCCNC(=O)CC[C@H](NC(=O)CC[C@H](NC(=O)COCCOCCNC(=O)COCCOCCNC(=O)CC[C@H](NC(=O)CCCCCCCCCCCCCCCCC(=O)O)C(=O)O)C(=O)O)C(=O)O)C(N)=O)C(C)C` [Example 65] (H-H[Aib]QGTFTSDLSKYLDARRARDFVQWLLNK([γGlu-γGlu-AEEA-AEEA-γGlu-C18 diacid])-NH2; N-terminus assumed) belongs 500 pM.

In general, IC50 refers to the concentration needed to halve the response being measured.
